Assay results published in US20150141437A1, “AMIDOPHENOXYPROPANOLAMINES” (MEDIZINISCHE UNIVERSITÄT WIEN, priority 2012, published 2015).

Legend:
[1] = tested on: P. falciparum NF54 (CQ sensitive); assay: [3H]-hypoxanthine incorporation assay, NF54 strain; type: cell-based; settings: Plasmodium falciparum, values marked with asterisk: [3H]-hypoxanthine assay, read-out: IC50 growth inhibition NF54*
[2] = tested on: P. falciparum K1 (CQ-resistant); assay: [3H]-hypoxanthine incorporation assay, K1 strain; type: cell-based; settings: Plasmodium falciparum, values marked with asterisk: [3H]-hypoxanthine assay, read-out: IC50 growth inhibition K1 (*)

| Structure (SMILES) | IC50 [1] [nM] | IC50 [2] [nM] |
| --- | --- | --- |
| O=C(Nc1ccc(F)cc1)c1ccccc1OCC(O)CNC12CC3CC(CC(C3)C1)C2 (stereo not shown) [Compound I-3, 2-[3-(Adamantan-1-ylamino)-2-hydroxy-propoxy]-N-(4-fluoro-phenyl)-benzamide] | 51 | 11 |
| CC12CC3CC(C)(C1)CC(NCC(O)COc1ccccc1C(=O)Nc1ccc(F)cc1)(C3)C2 (stereo not shown) [Compound I-4, 2-[3-(3,5-Dimethyl-adamantan-1-ylamino)-2-hydroxy-propoxy]-N-(4-fluoro-phenyl)-benzamide] | 38 | 8 |
| O=C(Nc1ccc(F)cc1)c1ccccc1OCC(O)CN1CCN(C23CC4CC(CC(C4)C2)C3)CC1 (stereo not shown) [Compound I-5, 2-[3-(4-Adamantan-1-yl-piperazin-1-yl)-2-hydroxy-propoxy]-N-(4-fluoro-phenyl)-benzamide] | 59 | 12 |
| O=C(NCCc1ccccc1)c1cc(Cl)ccc1OCC(O)CNC1C2CC3CC(C2)CC1C3 (stereo not shown) [Compound I-10, 2-[3-(Adamantan-2-ylamino)-2-hydroxy-propoxy]-5-chloro-N-phenethyl-benzamide] | 96 | 26 |
| CC(C)CCNC(=O)c1ccccc1OCC(O)CNCC12CC3CC(CC(C3)C1)C2 (stereo not shown) [Compound I-24, 2-{3-[(Adamantan-1-ylmethyl)-amino]-2-hydroxy-propoxy}-N-(3-methyl-butyl)-benzamide] | 134 | 36 |
| CC(C)CCNC(=O)c1ccccc1OCC(O)CNC(C)C12CC3CC(CC(C3)C1)C2 (stereo not shown) [Compound I-25, 2-[3-(1-Adamantan-1-yl-ethylamino)-2-hydroxy-propoxy]-N-(3-methyl-butyl)-benzamide] | 74 | 18 |
| O=C(NCc1ccc(C(F)(F)F)cc1)c1ccccc1OCC(O)CNCC12CC3CC(CC(C3)C1)C2 (stereo not shown) [Compound I-30, 2-{3-[(Adamantan-1-ylmethyl)-amino]-2-hydroxy-propoxy}-N-(4-trifluoromethyl-benzyl)-benzamide] | 57 | 18 |
| O=C(NCCc1ccccc1)c1ccccc1OCC(O)CNCC12CC3CC(CC(C3)C1)C2 (stereo not shown) [Compound I-31, 2-{3-[(Adamantan-1-ylmethyl)-amino]-2-hydroxy-propoxy}-N-phenethyl-benzamide] | 101 | 30 |
| O=C(NCCCc1ccccc1)c1ccccc1OCC(O)CNCC12CC3CC(CC(C3)C1)C2 (stereo not shown) [Compound I-32, 2-{3-[(Adamantan-1-ylmethyl)-amino]-2-hydroxy-propoxy}-N-(3-phenyl-propyl)-benzamide] | 148 | 52 |
| O=C(NCCc1ccccc1)c1cc(Cl)ccc1OCC(O)CNCC12CC3CC(CC(C3)C1)C2 (stereo not shown) [Compound I-33, 2-{3-[(Adamantan-1-ylmethyl)-amino]-2-hydroxy-propoxy}-5-chloro-N-phenethyl-benzamide] | 27 | 8 |
| O=C(NCc1cccc2ccccc12)c1cc(Cl)ccc1OCC(O)CNCC12CC3CC(CC(C3)C1)C2 (stereo not shown) [Compound I-34, 2-{3-[(Adamantan-1-ylmethyl)-amino]-2-hydroxy-propoxy}-5-chloro-N-naphthalen-1-ylmethyl-benzamide] | 20 | 5 |
| CN(CC(O)COc1ccccc1C(=O)NCc1ccccc1)CC12CC3CC(CC(C3)C1)C2 (stereo not shown) [Compound I-36, 2-[3-(Adamantan-1-ylmethyl-methyl-amino)-2-hydroxy-propoxy]-N-benzyl-benzamide] | 670 | 182 |
| CN(CC(O)COc1ccccc1C(=O)Nc1ccc(F)cc1)CC12CC3CC(CC(C3)C1)C2 (stereo not shown) [Compound I-37, 2-[3-(Adamantan-1-ylmethyl-methyl-amino)-2-hydroxy-propoxy]-N-(4-fluoro-phenyl)-benzamide] | 63 | 16 |
| O=C(Nc1ccccc1F)c1ccccc1OCC(O)CNCC12CC3CC(CC(C3)C1)C2 (stereo not shown) [Compound I-38, 2-{3-[(Adamantan-1-ylmethyl)-amino]-2-hydroxy-propoxy}-N-(2-fluoro-phenyl)-benzamide] | 24 | 8 |
| CN(CC(O)COc1ccccc1C(=O)NCc1ccc(C2(C(F)(F)F)N=N2)cc1)C1C2CC3CC(C2)CC1C3 (stereo not shown) [Compound I-43, 2-[3-(Adamantan-2-yl-methyl-amino)-2-hydroxy-propoxy]-N-[4-(3-trifluoromethyl-3H-diazirin-3-yl)-benzyl]-benzamide] | 119 | 28 |
| C#CCOc1ccc(OCC(O)CNCc2ccc(C3(C(F)(F)F)N=N3)cc2)c(C(=O)Nc2ccc(F)cc2)c1 (stereo not shown) [Compound I-45, N-(4-Fluoro-phenyl)-2-{2-hydroxy-3-[4-(3-trifluoromethyl-3H-diazirin-3-yl)-benzylamino]-propoxy}-5-prop-2-ynyloxy-benzamide] | 1860 | 542 |
| O=C(Nc1ccc(F)cc1)c1ccccc1OCC(O)CN1CCC(c2ccccc2)CC1 (stereo not shown) [Compound I-46, N-(4-Fluoro-phenyl)-2-[2-hydroxy-3-(4-phenyl-piperidin-1-yl)-propoxy]-benzamide] | 26 | 9 |
| CCCCNCC(O)COc1ccccc1C(=O)NCCC(C)C (stereo not shown) [Compound I-56, 2-(3-Butylamino-2-hydroxy-propoxy)-N-(3-methyl-butyl)-benzamide] | 2750 | 827 |
| CCCCN(CCCC)CC(O)COc1ccccc1C(=O)NCCC(C)C (stereo not shown) [Compound I-57, 2-(3-Dibutylamino-2-hydroxy-propoxy)-N-(3-methyl-butyl)-benzamide] | 333 | 76 |
| CC(C)CCNCC(O)COc1ccccc1C(=O)NCCC(C)C (stereo not shown) [Compound I-58, 2-[2-Hydroxy-3-(3-methyl-butylamino)-propoxy]-N-(3-methyl-butyl)-benzamide] | 1690 | 467 |
| CC(C)CCNC(=O)c1ccccc1OCC(O)CNCc1ccc(C(F)(F)F)cc1 (stereo not shown) [Compound I-60, 2-[2-Hydroxy-3-(4-trifluoromethyl-benzylamino)-propoxy]-N-(3-methyl-butyl)-benzamide] | 1360 | 371 |
| C=CCNCC(O)COc1ccccc1C(=O)Nc1ccccc1CC=C (stereo not shown) [Compound I-65, 2-(3-Allylamino-2-hydroxy-propoxy)-N-(2-allyl-phenyl)-benzamide] | 2550 | 488 |
| O=C(Nc1cccc(C(F)(F)F)c1)c1ccccc1OCC(O)CNC12CC3CC(CC(O)(C3)C1)C2 (stereo not shown) [Compound I-70, 2-[2-Hydroxy-3-(3-hydroxy-adamantan-1-ylamino)-propoxy]-N-(3-trifluoromethyl-phenyl)-benzamide] | 1500 | 921 |
| C=CCc1ccccc1NC(=O)c1ccccc1OCC(O)CNCC12CC3CC(CC(C3)C1)C2 (stereo not shown) [Compound I-73, 2-{3-[(Adamantan-1-ylmethyl)-amino]-2-hydroxy-propoxy}-N-(2-allyl-phenyl)-benzamide] | 73 | 21 |

Molecules with a lower IC50 [1], results first:

| IC50 [1] [nM] | IC50 [2] [nM] | Structure (SMILES) |
| --- | --- | --- |
| 14 | 4 | CC(NCC(O)COc1ccc(Cl)cc1C(=O)NCc1cccc2ccccc12)C12CC3CC(CC(C3)C1)C2 (stereo not shown) [Compound I-35, 2-[3-(1-Adamantan-1-yl-ethylamino)-2-hydroxy-propoxy]-5-chloro-N-naphthalen-1-ylmethyl-benzamide] |
| 16 | 7 | O=C(Nc1ccc(F)cc1)c1ccccc1OCC(O)CN1CCC(Cc2ccccc2)CC1 (stereo not shown) [Compound I-47, 2-[3-(4-Benzyl-piperidin-1-yl)-2-hydroxy-propoxy]-N-(4-fluoro-phenyl)-benzamide] |
| 14 | 4 | O=C(Nc1ccc(F)cc1)c1ccccc1OCC(O)CN1CCN(C(c2ccccc2)c2ccccc2)CC1 (stereo not shown) [Compound I-48, 2-[3-(4-Benzhydryl-piperazin-1-yl)-2-hydroxy-propoxy]-N-(4-fluoro-phenyl)-benzamide] |
| 18 | 6 | CCCCN(CCCC)CC(O)COc1ccccc1C(=O)Nc1ccc(F)cc1 (stereo not shown) [Compound I-61, 2-(3-Dibutylamino-2-hydroxy-propoxy)-N-(4-fluoro-phenyl)-benzamide] |
| 2.4 | 0.6 | O=C(Nc1ccc(F)cc1)c1cc(Cl)ccc1OCC(O)CNCC12CC3CC(CC(C3)C1)C2 (stereo not shown) [Compound I-66, 2-{3-[(Adamantan-1-ylmethyl)-amino]-2-hydroxy-pro-poxy}-5-chloro-N-(4-fluoro-phenyl)-benzamide] |
| 8.8 | 2.2 | O=C(Nc1cccc(C(F)(F)F)c1)c1ccccc1OCC(O)CN1CCC(c2ccccc2)CC1 (stereo not shown) [Compound I-67, 2-[2-Hydroxy-3-(4-phenyl-piperidin-1-yl)-propoxy]-N-(3-trifluoromethyl-phenyl)-benzamide] |
| 8.6 | 2.3 | O=C(Nc1cccc(C(F)(F)F)c1)c1ccccc1OCC(O)CN1CCC(Cc2ccccc2)CC1 (stereo not shown) [Compound I-68, 2-[3-(4-Benzyl-piperidin-1-yl)-2-hydroxy-propoxy]-N-(3-trifluoromethyl-phenyl)-benzamide] |
| 5.5 | 1.3 | O=C(Nc1cccc(C(F)(F)F)c1)c1ccccc1OCC(O)CN1CCN(C(c2ccccc2)c2ccccc2)CC1 (stereo not shown) [Compound I-69, 2-[3-(4-Benzhydryl-piperazin-1-yl)-2-hydroxy-propoxy]-N-(3-trifluoromethyl-phenyl)-benzamide] |
| 6.2 | 1.8 | O=C(Nc1ccc2ccccc2c1)c1ccccc1OCC(O)CNCC12CC3CC(CC(C3)C1)C2 (stereo not shown) [Compound I-71, 2-{3-[(Adamantan-1-ylmethyl)-amino]-2-hydroxy-propoxy}-N-naphthalen-2-yl-benzamide] |
| 4.2 | 1 | O=C(Nc1cccc(C(F)(F)F)c1)c1cc(Cl)ccc1OCC(O)CNCC12CC3CC(CC(C3)C1)C2 (stereo not shown) [Compound I-72, 2-{3-[(Adamantan-1-ylmethyl)-amino]-2-hydroxy-propoxy}-5-chloro-N-(3-trifluoromethyl-phenyl)-benzamide] |
| 4.8 | 1.2 | O=C(Nc1ccc(Br)cc1)c1ccccc1OCC(O)CNCC12CC3CC(CC(C3)C1)C2 (stereo not shown) [Compound I-74, 2-{3-[(Adamantan-1-ylmethyl)-amino]-2-hydroxy-propoxy}-N-(4-bromo-phenyl)-benzamide] |
